Experimental data reported in patent US7750000B2, “Substituted imidazo[1,2b]pyridazines as kinase inhibitors, their preparation and use as medicaments” (Bayer Schering Pharma AG, priority 2005, dated 2010).

Legend:
PKC theta = PKC theta (Homo sapiens, UniProt Q04759); test: Inhibition of PKC theta; type: biochemical
[1] = test system: interleukin 2 (IL-2) secretion of peripheral blood mononuclear cells (PBMC); test: Antibody-induced (anti-CD3/anti-CD28) IL-2 secretion in PBMC, ELISA; type: cell-based; conditions: human PBMC, anti-CD3/anti-CD28 stimulation; for IC50: 20 hours, read-out: IC50 (concentration for 50% inhibition of IL-2)
Experimental: The extent to which test substance influence antibody-induced interleukin 2 (IL-2) secretion was investigated in the following test system. IL-2 represents a central cytokine which is produced and released by activated T cells. IL-2 synthesis in the T cells is regulated by a plurality of kinases. An inhibitory effect of substances on kinases leads inter alia to inhibition of IL-2 synthesis and inhibition of the T cell immune response. The cytokine determinations were carried out using an ELISA kit.
Peripheral blood mononuclear cells (PBMC) were isolated from heparinized human whole blood by gradient centrifugation using Histopaque 1077 (Sigma) at room temperature, and the erythrocytes were lyzed hypotonically and, after washing twice in PBS, taken up in cell culture medium (10% fetal inactivated calf serum in RPMI-1640+Glutamax-I [Gibco]).
The 96 well culture plates (Costar) were previously incubated with 100 μl of antibody solution in PBS 0.1 μg/ml in PBS [Gibco]) per well at 4° C. for 18 hours. The antibodies used were anti-CD3 and anti-CD28 monoclonal antibodies (PharMingen). After washing with PBS three times, the plates were charged with 200 μl of the cell suspension (40 000 cells/well). […]
The cultures were incubated in an incubator at 37° C. for 20 hours. After this incubation, the plates were briefly shaken and centrifuged, and […] of supernatant were removed, and the supernatants were then frozen at −20° C.
Interleukin-2 was determined using an ELISA kit (Bioscience), and the absorption of the color change was analyzed in a SpectraMax 340 PC (wavelength 450 nm). Active substances brought about a reduction in the absorption.

PKC theta, sequence (Q04759 whole entry): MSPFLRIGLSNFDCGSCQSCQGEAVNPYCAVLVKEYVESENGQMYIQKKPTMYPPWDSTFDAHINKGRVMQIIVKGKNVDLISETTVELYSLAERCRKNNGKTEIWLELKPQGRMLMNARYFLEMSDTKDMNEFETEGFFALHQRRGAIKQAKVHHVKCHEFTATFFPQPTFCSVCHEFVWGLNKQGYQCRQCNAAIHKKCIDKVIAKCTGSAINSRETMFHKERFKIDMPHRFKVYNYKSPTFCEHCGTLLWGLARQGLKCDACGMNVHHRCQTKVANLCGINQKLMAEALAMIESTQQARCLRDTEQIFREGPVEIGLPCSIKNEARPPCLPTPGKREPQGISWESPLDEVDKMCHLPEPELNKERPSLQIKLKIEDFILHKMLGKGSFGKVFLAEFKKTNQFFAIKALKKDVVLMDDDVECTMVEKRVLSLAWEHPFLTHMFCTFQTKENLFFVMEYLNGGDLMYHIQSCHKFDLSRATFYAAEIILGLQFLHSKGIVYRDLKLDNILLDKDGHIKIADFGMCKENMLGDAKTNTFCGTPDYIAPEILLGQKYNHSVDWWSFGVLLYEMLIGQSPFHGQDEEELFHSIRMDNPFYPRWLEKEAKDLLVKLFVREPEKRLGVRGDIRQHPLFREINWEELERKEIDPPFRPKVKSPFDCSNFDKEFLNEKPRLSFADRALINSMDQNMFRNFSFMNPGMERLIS

Row | Compound | IC50 (PKC theta) [µM] | IC50 [1] [µM] | inhibition at 10 µM [1] [%]
1 | c1ccc(-c2cnc3ccc(NCCCn4ccnc4)nn23)cc1 [KE1322-002-a] | 12.9 | 1.7 | –
2 | Cc1[nH]ncc1CCCNc1ccc2ncc(-c3ccccc3)n2n1 [KE1322-006-a] | 11.3 | 2 | –
3 | Cn1cc(-c2cnc3ccc(NCC4CCCCC4)nn23)cn1 [KE1322-028-a] | 7 | – | –
4 | Cc1[nH]ncc1CCCNc1ccc2ncc(-c3cnn(C)c3)n2n1 [KE1322-030-a] | 7.2 | 0.7 | –
5 | Cc1[nH]ncc1CCCNc1ccc2ncc(-c3ccsc3)n2n1 [KE1322-042-a] | 13 | 0.4 | –
6 | c1ccc(-c2cnc3ccc(NCCCN4CCCC4)nn23)cc1 [OP 3070] | 6.1 | 1.4 | > 95
7 | c1ccc(-c2cnc3ccc(NCCCN4CCOCC4)nn23)cc1 [OP 3071] | 17 | 2.5 | > 95

Second part, led by results:

Row | IC50 (PKC theta) [µM] | Compound | IC50 [1] [µM] | inhibition at 10 µM [1] [%]
8 | 5.4 | CCN(CC)CCCC(C)Nc1ccc2ncc(-c3ccccc3)n2n1 (stereo not drawn) [KE1322-010-a] | 1.1 | –
9 | 5.5 | CCN(CC)CCCNc1ccc2ncc(-c3ccccc3)n2n1 [KE1322-011-a] | 2.6 | –
10 | 7.2 | Clc1cccc(-c2cnc3ccc(NCCCn4ccnc4)nn23)c1 [KE1322-014-a] | 1.1 | –
11 | 0.22 | CCN(CC)CCCC(C)Nc1ccc2ncc(-c3cccc(Cl)c3)n2n1 (stereo not drawn) [KE1322-022-a] | 0.29 | –
12 | 0.25 | CCN(CC)CCCNc1ccc2ncc(-c3cccc(Cl)c3)n2n1 [KE1322-023-a] | 0.21 | –
13 | 1.7 | Clc1cccc(-c2cnc3ccc(NCCN4CCCC4)nn23)c1 [KE1322-024-a] | 1 | –
14 | 0.25 | Clc1cccc(-c2cnc3ccc(NCCCN4CCCC4)nn23)c1 [OP 3073] | 0.21 | > 95
15 | 0.41 | Clc1cccc(-c2cnc3ccc(NCCCN4CCOCC4)nn23)c1 [OP 3074] | 0.92 | > 95
